Reference: BindingDB's records for doi:10.1016/s0960-894x(03)00588-2 (University of California Irvine, 2003)

Columns and labels:
[1] = Inhibitory concentration against protein phosphatase 1 (PP1) using pNPP assay
[2] = Inhibitory concentration against protein phosphatase 1 (PP1) using phosphorylase-a assay

Row | SMILES | IC50 [1] | IC50 [2]
1 | CO[C@@H](Cc1ccccc1)[C@@H](C)/C=C(C)/C=C/[C@H](NC(C)=O)[C@H](C)C(=O)N1C[C@H](O[Si](C(C)C)(C(C)C)C(C)C)C[C@@H]1C(=O)O [(2R,4R)-1-((4E,6E)-(2S,3S,8S,9S)-3-Acetylamino-9-methoxy-2,6,8-trimethyl-10-phenyl-deca-4,6-dienoyl)-4-triisopropylsilanyloxy-pyrrolidine-2-carboxylic acid] | > 100 µM | 
2 | CO[C@@H](Cc1ccccc1)[C@@H](C)/C=C(C)/C=C/[C@H](NC(C)=O)[C@H](C)C(=O)N(CC(=O)O)CC(=O)O [[((4E,6E)-(2S,3S,8S,9S)-3-Acetylamino-9-methoxy-2,6,8-trimethyl-10-phenyl-deca-4,6-dienoyl)-carboxymethyl-amino]-acetic acid] | > 100 µM | 
3 | CC(=O)N[C@@H](/C=C/C(C)=C/CCCc1ccccc1)[C@H](C)C(=O)N[C@H](C)C(=O)O [(R)-2-((4E,6E)-(2S,3S)-3-Acetylamino-2,6-dimethyl-10-phenyl-deca-4,6-dienoylamino)-propionic acid] | > 100 µM | 
4 | CO[C@@H](Cc1ccccc1)[C@@H](C)/C=C(C)/C=C/[C@H](NC(C)=O)[C@H](C)C(=O)N[C@@H](C)C(=O)O [(S)-2-((4E,6E)-(2S,3S,8S,9S)-3-Acetylamino-9-methoxy-2,6,8-trimethyl-10-phenyl-deca-4,6-dienoylamino)-propionic acid] |  | 170 µM
5 | COC(=O)[C@@H]1CCCN1C(=O)[C@@H](C)[C@H](/C=C/C(C)=C/[C@H](C)[C@H](Cc1ccccc1)OC)NC(C)=O [(S)-1-((4E,6E)-(2S,3S,8S,9S)-3-Acetylamino-9-methoxy-2,6,8-trimethyl-10-phenyl-deca-4,6-dienoyl)-pyrrolidine-2-carboxylic acid methyl ester] | > 100 µM | 
6 | CO[C@@H](Cc1ccccc1)[C@@H](C)/C=C(C)/C=C/[C@H](NC(C)=O)[C@H](C)C(=O)N1C[C@H](C(=O)O)C[C@@H]1C(=O)O [(2R,4R)-1-((4E,6E)-(2S,3S,8S,9S)-3-Acetylamino-9-methoxy-2,6,8-trimethyl-10-phenyl-deca-4,6-dienoyl)-pyrrolidine-2,4-dicarboxylic acid] | > 100 µM | 
7 | CO[C@@H](Cc1ccccc1)[C@@H](C)/C=C(C)/C=C/[C@H](NC(C)=O)[C@H](C)C(=O)N1C[C@H](C(=O)O)C[C@H]1C(=O)O [(2S,4R)-1-((4E,6E)-(2S,3S,8S,9S)-3-Acetylamino-9-methoxy-2,6,8-trimethyl-10-phenyl-deca-4,6-dienoyl)-pyrrolidine-2,4-dicarboxylic acid] | > 100 µM | 
8 | CO[C@@H](Cc1ccccc1)[C@@H](C)/C=C(C)/C=C/[C@H](NC(C)=O)[C@H](C)C(=O)N1CCC[C@H]1C(=O)O [(S)-1-((4E,6E)-(2S,3S,8S,9S)-3-Acetylamino-9-methoxy-2,6,8-trimethyl-10-phenyl-deca-4,6-dienoyl)-pyrrolidine-2-carboxylic acid] | > 100 µM | 
9 | CO[C@@H](Cc1ccccc1)[C@@H](C)/C=C(C)/C=C/[C@H](NC(C)=O)[C@H](C)C(=O)N1CCCC1 [N-[(2E,4E)-(1S,6S,7S)-7-Methoxy-4,6-dimethyl-1-((S)-1-methyl-2-oxo-2-pyrrolidin-1-yl-ethyl)-8-phenyl-octa-2,4-dienyl]-acetamide] | > 100 µM | 
10 | CO[C@@H](Cc1ccccc1)[C@@H](C)/C=C(C)/C=C/[C@H](NC(C)=O)[C@H](C)C(=O)N1[C@H](C(=O)O)CC[C@H]1C(=O)O [(2S,5S)-1-((4E,6E)-(2S,3S,8S,9S)-3-Acetylamino-9-methoxy-2,6,8-trimethyl-10-phenyl-deca-4,6-dienoyl)-pyrrolidine-2,5-dicarboxylic acid] | > 50 µM | 
11 | COC(=O)[C@H]1CCCN1C(=O)[C@@H](C)[C@H](/C=C/C(C)=C/[C@H](C)[C@H](Cc1ccccc1)OC)NC(C)=O [(R)-1-((4E,6E)-(2S,3S,8S,9S)-3-Acetylamino-9-methoxy-2,6,8-trimethyl-10-phenyl-deca-4,6-dienoyl)-pyrrolidine-2-carboxylic acid methyl ester] | > 100 µM | 
12 | CC(=O)N[C@@H](/C=C/C(C)=C/c1ccccc1Cc1ccccc1)[C@H](C)C(=O)N[C@H](C)C(=O)O [(R)-2-[(4E,6E)-(2S,3S)-3-Acetylamino-7-(2-benzyl-phenyl)-2,6-dimethyl-hepta-4,6-dienoylamino]-propionic acid] | > 100 µM | 
13 | CO[C@@H](Cc1ccccc1)[C@@H](C)/C=C(C)/C=C/[C@H](NC(C)=O)[C@H](C)C(=O)NCC(=O)O [((4E,6E)-(2S,3S,8S,9S)-3-Acetylamino-9-methoxy-2,6,8-trimethyl-10-phenyl-deca-4,6-dienoylamino)-acetic acid] |  | 5.6 µM
14 | CO[C@@H](Cc1ccccc1)[C@@H](C)/C=C(C)/C=C/[C@H](NC(C)=O)[C@H](C)C(=O)N1C[C@@H](C(=O)O)C[C@@H]1C(=O)O [(2R,4S)-1-((4E,6E)-(2S,3S,8S,9S)-3-Acetylamino-9-methoxy-2,6,8-trimethyl-10-phenyl-deca-4,6-dienoyl)-pyrrolidine-2,4-dicarboxylic acid] | > 100 µM | 
15 | CO[C@@H](Cc1ccccc1)[C@@H](C)/C=C(C)/C=C/[C@H](NC(C)=O)[C@H](C)C(=O)N1[C@@H](C(=O)O)CC[C@H]1C(=O)O [(2R,5S)-1-((4E,6E)-(2S,3S,8S,9S)-3-Acetylamino-9-methoxy-2,6,8-trimethyl-10-phenyl-deca-4,6-dienoyl)-pyrrolidine-2,5-dicarboxylic acid] | > 50 µM | 
16 | CC(=O)N[C@@H](/C=C/C(C)=C/c1ccc(-c2ccccc2)cc1)[C@H](C)C(=O)N[C@H](C)C(=O)O [(R)-2-((4E,6E)-(2S,3S)-3-Acetylamino-7-biphenyl-4-yl-2,6-dimethyl-hepta-4,6-dienoylamino)-propionic acid] | > 100 µM | 
17 | CO[C@@H](Cc1ccccc1)[C@@H](C)/C=C(C)/C=C/[C@H](NC(C)=O)[C@H](C)C(=O)N[C@H](C)C(=O)O [(R)-2-((4E,6E)-(2S,3S,8S,9S)-3-Acetylamino-9-methoxy-2,6,8-trimethyl-10-phenyl-deca-4,6-dienoylamino)-propionic acid] | 25 µM | 1 µM
18 | CO[C@@H](Cc1ccccc1)[C@@H](C)/C=C(C)/C=C/[C@H](NC(C)=O)[C@H](C)C(=O)N1CCC[C@@H]1C(=O)O [(R)-1-((4E,6E)-(2S,3S,8S,9S)-3-Acetylamino-9-methoxy-2,6,8-trimethyl-10-phenyl-deca-4,6-dienoyl)-pyrrolidine-2-carboxylic acid] | > 55 µM | 
